Literature values as cited in patent publication US20110236473A1, “STABLE ALISKIREN FORMULATIONS” (Sanovel Ilac Sanayi Ve Ticaret Anonim Sirketi, priority 2010, published 2011).
Like-named read-outs stand apart in the source and are kept apart here.

Measured: solubility

COCCCOc1cc(C[C@@H](C[C@H](N)[C@@H](O)C[C@@H](C(=O)NCC(C)(C)C(N)=O)C(C)C)C(C)C)ccc1OC [Aliskiren hemifumarate, (2S,4S,5S,7S)-5-amino-N-(2-carbamoyl-2-methylpropyl)-4-hydroxy-2-isopropyl-7-[4-methoxy-3-(3-methoxypropoxy)benzyl]-8-methylnonamide]
freely soluble: in n-octanol | in phosphate buffer | in water
